Data reported in patent US12102644B2, “Compounds and methods of promoting myelination” (Case Western Reserve University, priority 2019, dated 2024).

What was measured:
[1] = test system: LPC-lesioned spinal cord; test: LPC focal demyelination of spinal cord, remyelination histology; format: in vivo, mouse; conditions: ifenprodil 10 mg per kg or tamoxifen 2 mg per kg, daily i.p., 8 days from day 4 after lesion
[2] = mouse; cited from earlier work
[3] = test system: mouse brain sterol levels; test: Analysis of mouse brain sterol levels (GC/MS); format: in vivo; conditions: ifenprodil 10 mg per kg, tamoxifen 2 mg per kg, daily, 3 days
[4] = test system: human myelinating cortical spheroids; test: MyRF+ oligodendrocytes in human myelinating cortical spheroids; format: cell-based; conditions: spheroids treated 10 days from day 62, stained day 93
Procedure: Spheroids at day 62 were treated with the indicated small molecules for 10 days and stained at day 93. Four spheroids were analyzed per treatment condition, and four fields per organoid were used in the quantitation. f) Representative images of spheroids. Nuclei are labeled with DAPI (blue), and oligodendrocytes are immunostained for MyRF (red). Scale bar, 100 μm.

[5] = test system: human induced pluripotent stem cell-derived cortical spheroids; test: Sterol profiling in human iPSC-derived cortical spheroids; format: cell-based

For `CC(C(O)c1ccc(O)cc1)N1CCC(Cc2ccccc2)CC1` (centres unmarked) [ifenprodil, Ifenprodil], the “remyelination of LPC lesion” value [1] is given as “remyelination was widespread throughout the lesion”, the “blood brain barrier penetration” value [2] is given as “known to cross the mouse blood brain barrier” and the “8,9-unsaturated sterols in mouse CNS” value [3] is given as “induced significant accumulation of 8,9-unsaturated sterols in vivo in the CNS”. The “formation of MyRF-positive human oligodendrocytes” value [4] was “enhanced the formation of myelin regulatory factor (MyRF)-positive human oligodendrocytes” and the “8,9-unsaturated sterol accumulation in human cortical spheroids” value [5] was “led to 8,9-unsaturated sterol accumulation”.
